Source: ChEMBL document CHEMBL1122453, “Structure-activity relationships in the antiinflammatory steroids: a pattern-recognition approach” (1983)

Species on record: Homo sapiens
Test: Potency relative to fluocinolone 16,17-acetonide in the human vasoconstictor test
Assay type: functional

Structure (SMILES) | Potency
COC(=O)[C@@]1(OC(C)=O)[C@@H](C)CC2C3CCC4=CC(=O)C=CC4(C)[C@@]3(F)[C@@H](O)CC21C (some centres undefined) | 385
CC(=O)O[C@]1(C(=O)CCl)[C@@H](C)CC2C3CCC4=CC(=O)C=CC4(C)[C@@]3(F)[C@@H](O)CC21C (some centres undefined) | 812
CCCC(=O)OCC(=O)[C@@]1(OC(=O)CCC)CC[C@H]2[C@@H]3C[C@H](F)C4=CC(=O)C=C[C@]4(C)[C@@]3(F)[C@@H](O)C[C@@]21C | 540
CCC(=O)O[C@]1(C(=O)CO)[C@@H](C)C[C@H]2[C@@H]3CCC4=CC(=O)C=C[C@]4(C)[C@@]3(Cl)[C@@H](O)C[C@@]21C [BECLOMETHASONE 17-MONOPROPIONATE] | 360
CCCCC(=O)O[C@]1(C(=O)COC(C)=O)CC[C@H]2[C@@H]3C[C@H](F)C4=CC(=O)CC[C@]4(C)[C@@]3(F)[C@@H](O)C[C@@]21C | 360
CC(=O)O[C@]1(C(C)=O)CCC2C3C[C@H](F)C4=CC(=O)C=CC4(C)[C@@]3(F)C(O)CC21C (some centres undefined) | 540
CCCC(=O)O[C@]1(C(=O)OC)[C@@H](C)CC2C3CCC4=CC(=O)C=CC4(C)[C@@]3(F)[C@@H](O)CC21C (some centres undefined) | 175
CC12CCC(=O)C=C1CCC1C2C(O)CC2(C)C1CC[C@]2(O)C(=O)COP(=O)(O)O (some centres undefined) | 0.01
CCCCC(=O)O[C@]1(C(=O)CCl)[C@@H](C)C[C@H]2[C@@H]3CCC4=CC(=O)C=C[C@]4(C)[C@@]3(F)[C@@H](O)C[C@@]21C | 91
CCCCC(=O)O[C@]1(C(=O)COC(C)=O)CCC2C3C[C@H](F)C4=CC(=O)C=CC4(C)[C@@]3(F)C(O)CC21C (some centres undefined) | 720
CCCCC(=O)OCC(=O)[C@@]1(O)C(C)CC2C3CCC4=CC(=O)C=CC4(C)[C@@]3(F)C(O)CC21C (some centres undefined) | 26
C[C@@H]1C[C@H]2[C@@H]3C[C@H](F)C4=CC(=O)C=C[C@]4(C)[C@@]3(F)[C@@H](O)C[C@]2(C)[C@@]1(O)C(=O)COC(=O)C(C)(C)C [FLUMETHASONE PIVALATE] | 360
CCCCC(=O)O[C@]1(C(=O)CO)[C@@H](C)C[C@H]2[C@@H]3CCC4=CC(=O)C=C[C@]4(C)[C@@]3(F)[C@@H](O)C[C@@]21C [BETAMETHASONE VALERATE] | 360
CCOC(=O)[C@@]1(OC(C)=O)[C@@H](C)CC2C3CCC4=CC(=O)C=CC4(C)C3(F)[C@@H](O)CC21C (some centres undefined) | 16
C[C@H]1C[C@H]2C3CCC4=CC(=O)C=C[C@]4(C)[C@@]3(F)[C@@H](O)C[C@]2(C)[C@@]1(O)C(=O)O (some centres undefined) | <1
CC(C)C(=O)OCC(=O)[C@@]1(O)C(C)CC2C3CCC4=CC(=O)C=CC4(C)[C@@]3(F)C(O)CC21C (some centres undefined) | 90
CCC(=O)O[C@]1(C(C)=O)C(C)CC2C3CCC4=CC(=O)C=CC4(C)[C@@]3(F)C(O)CC21C (some centres undefined) | 1170
CCC(=O)O[C@]1(C(=O)COC(C)=O)CCC2C3C[C@H](F)C4=CC(=O)C=CC4(C)[C@@]3(F)C(O)CC21C (some centres undefined) | 1080
CCC(=O)O[C@]1(C(=O)COC(=O)C(C)(C)C)CCC2C3C[C@H](F)C4=CC(=O)C=CC4(C)[C@@]3(F)C(O)CC21C (some centres undefined) | 720
CC(=O)[C@@]1(O)CCC2C3CCC4=CC(=O)CCC4(C)C3C(O)CC21C (some centres undefined) | 0.4
CCCC(=O)O[C@]1(C(=O)COC(C)=O)CC[C@H]2[C@@H]3C[C@H](F)C4=CC(=O)C=C[C@]4(C)[C@@]3(F)[C@@H](O)C[C@@]21C [DIFLUPREDNATE] | 1170
CC(=O)O[C@]1(C(=O)CO)CCC2C3C[C@H](F)C4=CC(=O)C=CC4(C)[C@@]3(F)C(O)CC21C (some centres undefined) | <360

Structure (SMILES) | Potency
CCC(=O)OCC(=O)[C@@]1(OC(=O)CC)[C@@H](C)C[C@H]2[C@@H]3CCC4=CC(=O)C=C[C@]4(C)[C@@]3(Cl)[C@@H](O)C[C@@]21C [BECLOMETHASONE DIPROPIONATE] | 500
C[C@]12C=CC(=O)C=C1CC[C@@H]1[C@@H]2[C@@H](O)C[C@@]2(C)[C@H]1CC[C@]2(O)C(=O)COP(=O)(O)O [PREDNISOLONE PHOSPHORIC ACID] | 0.1
CCCC(=O)O[C@]1(C(=O)COC(=O)C(C)C)CCC2C3C[C@H](F)C4=CC(=O)C=CC4(C)[C@@]3(F)C(O)CC21C (some centres undefined) | 1080
CCCC(=O)OC1(C(=O)CCl)[C@@H](C)CC2C3CCC4=CC(=O)C=C[C@]4(C)[C@@]3(F)[C@@H](O)C[C@@]21C (some centres undefined) | 1166
CCCC(=O)O[C@]1(C(=O)OCC)[C@@H](C)CC2C3CCC4=CC(=O)C=CC4(C)C3(F)[C@@H](O)CC21C (some centres undefined) | 40
CCCOC(=O)[C@@]1(OC(=O)CCC)[C@@H](C)CC2C3CCC4=CC(=O)C=CC4(C)C3(F)[C@@H](O)CC21C (some centres undefined) | 40
CCC(=O)O[C@]1(C(=O)CO)CCC2C3C[C@H](F)C4=CC(=O)C=CC4(C)[C@@]3(F)C(O)CC21C (some centres undefined) | <360
CCC(=O)OCC(=O)[C@@]1(OC(=O)CC)CCC2C3C[C@H](F)C4=CC(=O)C=CC4(C)[C@@]3(F)C(O)CC21C (some centres undefined) | 853
CCCC(=O)O[C@]1(C(=O)CO)C(C)CC2C3CCC4=CC(=O)C=CC4(C)[C@@]3(F)C(O)CC21C (some centres undefined) | 168
CC(=O)O[C@]1(C(=O)CO)C(C)CC2C3CCC4=CC(=O)C=CC4(C)[C@@]3(F)C(O)CC21C (some centres undefined) | 114
CC(=O)OCC(=O)[C@@]1(OC(=O)C(C)C)CCC2C3C[C@H](F)C4=CC(=O)C=CC4(C)[C@@]3(F)C(O)CC21C (some centres undefined) | 720
CC(C)C(=O)O[C@]1(C(=O)CO)CCC2C3C[C@H](F)C4=CC(=O)C=CC4(C)[C@@]3(F)C(O)CC21C (some centres undefined) | <360
CC(=O)OCC(=O)[C@@]12OC(C)(C)O[C@@H]1C[C@H]1[C@@H]3C[C@H](F)C4=CC(=O)C=C[C@]4(C)[C@@]3(F)[C@@H](O)C[C@@]12C [FLUOCINONIDE] | 300
CCC(=O)O[C@]1(C(=O)OCCl)[C@@H](C)CC2C3CCC4=CC(=O)C=CC4(C)[C@@]3(F)[C@@H](O)CC21C (some centres undefined) | 400
CCCOC(=O)[C@@]1(OC(=O)CC)[C@@H](C)CC2C3CCC4=CC(=O)C=CC4(C)C3(F)[C@@H](O)CC21C (some centres undefined) | 30
CCCC(=O)OCC(=O)[C@@]1(O)C(C)CC2C3CCC4=CC(=O)C=CC4(C)[C@@]3(F)C(O)CC21C (some centres undefined) | 85
CCCCC(=O)O[C@]1(C(=O)CO)CCC2C3C[C@H](F)C4=CC(=O)CCC4(C)[C@@]3(F)C(O)CC21C (some centres undefined) | 360
CCC(=O)O[C@]1(C(=O)O)[C@@H](C)CC2C3CCC4=CC(=O)C=CC4(C)C3(F)[C@@H](O)CC21C (some centres undefined) | <1
CC(=O)OCC(=O)[C@@]1(O)[C@@H](C)C[C@H]2[C@@H]3CCC4=CC(=O)C=C[C@]4(C)[C@@]3(F)[C@@H](O)C[C@@]21C [BETAMETHASONE ACETATE] | 18
C[C@@H]1CC2C3CCC4=CC(=O)C=CC4(C)[C@@]3(F)C(O)CC2(C)[C@@]1(O)C(=O)COP(=O)(O)O (some centres undefined) | 2
CC(=O)[C@H]1CC[C@H]2[C@@H]3C[C@H](C)C4=CC(=O)CC[C@]4(C)[C@H]3[C@@H](O)C[C@]12C [MEDRYSONE] | <1
CC(=O)OCC(=O)[C@@]1(O)[C@H](C)C[C@H]2[C@@H]3CCC4=CC(=O)C=C[C@]4(C)[C@@]3(F)[C@@H](O)C[C@@]21C [DEXAMETHASONE ACETATE] | 8

Structure (SMILES) | Potency
CC(C)C(=O)OCC(=O)[C@@]1(OC(=O)C(C)C)CCC2C3C[C@H](F)C4=CC(=O)C=CC4(C)[C@@]3(F)C(O)CC21C (some centres undefined) | 720
CCCCC(=O)O[C@]1(C(=O)O)[C@@H](C)CC2C3CCC4=CC(=O)C=CC4(C)C3(F)[C@@H](O)CC21C (some centres undefined) | <1
C[C@]12C=CC(=O)C=C1[C@@H](F)C[C@@H]1[C@@H]2[C@@H](O)C[C@@]2(C)[C@H]1CC[C@]2(O)C(=O)CO [FLUPREDNISOLONE] | 1
CCC(=O)OCC(=O)[C@@]1(O)[C@@H](C)C[C@H]2[C@@H]3CCC4=CC(=O)C=C[C@]4(C)[C@@]3(F)[C@@H](O)C[C@@]21C | 40
CC1CC2C3CCC4=CC(=O)C=CC4(C)[C@@]3(Cl)C(O)CC2(C)[C@@]1(O)C(=O)CO (some centres undefined) | 0.8
CCCOC(=O)[C@@]1(O)[C@@H](C)CC2C3CCC4=CC(=O)C=CC4(C)C3(F)[C@@H](O)CC21C (some centres undefined) | 5
CCCC(=O)OCC(=O)[C@@]1(OC(=O)CC)CCC2C3C[C@H](F)C4=CC(=O)C=CC4(C)[C@@]3(F)C(O)CC21C (some centres undefined) | 1260
CC(=O)O[C@]1(C(=O)O)[C@@H](C)CC2C3CCC4=CC(=O)C=CC4(C)C3(F)[C@@H](O)CC21C (some centres undefined) | <1
CC(=O)OCC(=O)[C@@]1(OC(C)=O)CCC2C3C[C@H](F)C4=CC(=O)C=CC4(C)[C@@]3(F)C(O)CC21C (some centres undefined) | 360
CC(C)C(=O)OC1(C(=O)CCl)[C@@H](C)CC2C3CCC4=CC(=O)C=CC4(C)[C@]3(F)[C@@H](O)CC21C (some centres undefined) | 378
CC(C)C(=O)O[C@]1(C(=O)CO)C(C)CC2C3CCC4=CC(=O)C=CC4(C)[C@@]3(F)C(O)CC21C (some centres undefined) | 470
CCC(=O)OCC(=O)[C@@]1(OC(=O)CC)[C@@H](C)C[C@H]2[C@@H]3CCC4=CC(=O)C=C[C@]4(C)[C@@]3(F)[C@@H](O)C[C@@]21C [BETAMETHASONE DIPROPIONATE] | 1300
CCCCC(=O)O[C@]1(C(=O)CO)CCC2C3CCC4=CC(=O)C=CC4(C)C3C(O)CC21C (some centres undefined) | <1
CCC(=O)OCC(=O)[C@@]1(OC(=O)C(C)C)CCC2C3C[C@H](F)C4=CC(=O)C=CC4(C)[C@@]3(F)C(O)CC21C (some centres undefined) | 900
CCOC(=O)[C@@]1(OC(=O)CC)[C@@H](C)CC2C3CCC4=CC(=O)C=CC4(C)[C@@]3(F)[C@@H](O)CC21C (some centres undefined) | 75
CCCCC(=O)O[C@]1(C(=O)CO)CCC2C3C[C@H](F)C4=CC(=O)C=CC4(C)[C@@]3(F)C(O)CC21C (some centres undefined) | 360
CC12C=CC(=O)C=C1[C@@H](F)CC1C3CC[C@](O)(C(=O)CO)C3(C)CC(O)[C@@]12F (some centres undefined) | <360
CCC(=O)O[C@]1(C(=O)COC(=O)C(C)C)CCC2C3C[C@H](F)C4=CC(=O)C=CC4(C)[C@@]3(F)C(O)CC21C (some centres undefined) | 1080
CC(=O)O[C@]1(C(=O)COC(=O)C(C)C)CCC2C3C[C@H](F)C4=CC(=O)C=CC4(C)[C@@]3(F)C(O)CC21C (some centres undefined) | 720
CCCC(=O)O[C@]1(C(=O)CO)CCC2C3C[C@H](F)C4=CC(=O)C=CC4(C)[C@@]3(F)C(O)CC21C (some centres undefined) | <360
